Measured values reported in PubChem BioAssay (NCI).
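All cell lines were grown in 96-well plates and treated with compound for 48 hours. At the TGI there is no net growth.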

tested on: SK-MEL-28 melanoma; assay: growth of human tumour cells (NCI), 48 h

| Compound | TGI |
| --- | --- |
| N#Cc1c2c(c(Cl)n3c1nc1ccccc13)CCCC2 | 4.43 µM |
| O=Cc1c(O)ccc2ccc(O)c(-c3c(O)ccc4ccc(O)cc34)c12 | > 100 µM |
| COc1ccc(/C=C/C(=O)C(C)(C)C)cc1OC | > 100 µM |
| CCOP(=S)(OCC)Oc1ccc2c(c1)OC(=O)C1(Cl)C2(C)C2(Cl)C(=O)Oc3cc(OP(=S)(OCC)OCC)ccc3C12C (stereo not drawn) | 31.1 µM |
| CCCCC1CC(c2ccc(Cl)cc2)=NO1 (stereo not drawn) | > 100 µM |

tested on: M19-MEL melanoma; assay: growth of human tumour cells (NCI), 48 h

| Compound | TGI |
| --- | --- |
| N#Cc1c2c(c(Cl)n3c1nc1ccccc13)CCCC2 | 12.2 µM |
| O=Cc1c(O)ccc2ccc(O)c(-c3c(O)ccc4ccc(O)cc34)c12 | > 100 µM |
| COc1ccc(/C=C/C(=O)C(C)(C)C)cc1OC | > 100 µM |
| CCOP(=S)(OCC)Oc1ccc2c(c1)OC(=O)C1(Cl)C2(C)C2(Cl)C(=O)Oc3cc(OP(=S)(OCC)OCC)ccc3C12C (stereo not drawn) | 33.9 µM |
| CCCCC1CC(c2ccc(Cl)cc2)=NO1 (stereo not drawn) | > 100 µM |

tested on: A549 NSCLC; assay: growth of human tumour cells (NCI), 48 h

| Compound | TGI |
| --- | --- |
| N#Cc1c2c(c(Cl)n3c1nc1ccccc13)CCCC2 | 17.2 µM |
| O=Cc1c(O)ccc2ccc(O)c(-c3c(O)ccc4ccc(O)cc34)c12 | > 100 µM |
| COc1ccc(/C=C/C(=O)C(C)(C)C)cc1OC | > 100 µM |
| CCOP(=S)(OCC)Oc1ccc2c(c1)OC(=O)C1(Cl)C2(C)C2(Cl)C(=O)Oc3cc(OP(=S)(OCC)OCC)ccc3C12C (stereo not drawn) | 74.1 µM |
| CCCCC1CC(c2ccc(Cl)cc2)=NO1 (stereo not drawn) | > 100 µM |

tested on: NCI-H460 lung; assay: growth of human tumour cells (NCI), 48 h

| Compound | TGI |
| --- | --- |
| N#Cc1c2c(c(Cl)n3c1nc1ccccc13)CCCC2 | 4.02 µM |
| O=Cc1c(O)ccc2ccc(O)c(-c3c(O)ccc4ccc(O)cc34)c12 | > 100 µM |
| COc1ccc(/C=C/C(=O)C(C)(C)C)cc1OC | > 100 µM |
| CCOP(=S)(OCC)Oc1ccc2c(c1)OC(=O)C1(Cl)C2(C)C2(Cl)C(=O)Oc3cc(OP(=S)(OCC)OCC)ccc3C12C (stereo not drawn) | 36.6 µM |
| CCCCC1CC(c2ccc(Cl)cc2)=NO1 (stereo not drawn) | > 100 µM |

tested on: NCI-H23 lung; assay: growth of human tumour cells (NCI), 48 h

| Compound | TGI |
| --- | --- |
| N#Cc1c2c(c(Cl)n3c1nc1ccccc13)CCCC2 | 17 µM |
| O=Cc1c(O)ccc2ccc(O)c(-c3c(O)ccc4ccc(O)cc34)c12 | > 100 µM |
| COc1ccc(/C=C/C(=O)C(C)(C)C)cc1OC | > 100 µM |
| CCCCC1CC(c2ccc(Cl)cc2)=NO1 (stereo not drawn) | > 100 µM |

tested on: DLD-1 colon; assay: growth of human tumour cells (NCI), 48 h

| Compound | TGI |
| --- | --- |
| N#Cc1c2c(c(Cl)n3c1nc1ccccc13)CCCC2 | 24.2 µM |
| O=Cc1c(O)ccc2ccc(O)c(-c3c(O)ccc4ccc(O)cc34)c12 | > 100 µM |
| COc1ccc(/C=C/C(=O)C(C)(C)C)cc1OC | > 100 µM |
| CCOP(=S)(OCC)Oc1ccc2c(c1)OC(=O)C1(Cl)C2(C)C2(Cl)C(=O)Oc3cc(OP(=S)(OCC)OCC)ccc3C12C (stereo not drawn) | 33.3 µM |
| CCCCC1CC(c2ccc(Cl)cc2)=NO1 (stereo not drawn) | > 100 µM |

tested on: K-562 leukemia; assay: growth of human tumour cells (NCI), 48 h

| Compound | TGI |
| --- | --- |
| N#Cc1c2c(c(Cl)n3c1nc1ccccc13)CCCC2 | 7.15 µM |
| O=Cc1c(O)ccc2ccc(O)c(-c3c(O)ccc4ccc(O)cc34)c12 | > 100 µM |
| COc1ccc(/C=C/C(=O)C(C)(C)C)cc1OC | > 100 µM |
| CCOP(=S)(OCC)Oc1ccc2c(c1)OC(=O)C1(Cl)C2(C)C2(Cl)C(=O)Oc3cc(OP(=S)(OCC)OCC)ccc3C12C (stereo not drawn) | 77.3 µM |
| CCCCC1CC(c2ccc(Cl)cc2)=NO1 (stereo not drawn) | > 100 µM |

tested on: HCT-116 colon; assay: growth of human tumour cells (NCI), 48 h

| Compound | TGI |
| --- | --- |
| N#Cc1c2c(c(Cl)n3c1nc1ccccc13)CCCC2 | 5.43 µM |
| O=Cc1c(O)ccc2ccc(O)c(-c3c(O)ccc4ccc(O)cc34)c12 | > 100 µM |
| CCOP(=S)(OCC)Oc1ccc2c(c1)OC(=O)C1(Cl)C2(C)C2(Cl)C(=O)Oc3cc(OP(=S)(OCC)OCC)ccc3C12C (stereo not drawn) | 25 µM |
| CCCCC1CC(c2ccc(Cl)cc2)=NO1 (stereo not drawn) | > 100 µM |

tested on: LXFL 529 NSCLC; assay: growth of human tumour cells (NCI), 48 h

| Compound | TGI |
| --- | --- |
| O=Cc1c(O)ccc2ccc(O)c(-c3c(O)ccc4ccc(O)cc34)c12 | > 100 µM |
| COc1ccc(/C=C/C(=O)C(C)(C)C)cc1OC | > 100 µM |
| CCOP(=S)(OCC)Oc1ccc2c(c1)OC(=O)C1(Cl)C2(C)C2(Cl)C(=O)Oc3cc(OP(=S)(OCC)OCC)ccc3C12C (stereo not drawn) | 21.1 µM |
| CCCCC1CC(c2ccc(Cl)cc2)=NO1 (stereo not drawn) | > 100 µM |

tested on: UACC-257 melanoma; assay: growth of human tumour cells (NCI), 48 h

| Compound | TGI |
| --- | --- |
| N#Cc1c2c(c(Cl)n3c1nc1ccccc13)CCCC2 | 3.91 µM |
| O=Cc1c(O)ccc2ccc(O)c(-c3c(O)ccc4ccc(O)cc34)c12 | > 100 µM |
| COc1ccc(/C=C/C(=O)C(C)(C)C)cc1OC | > 100 µM |
| CCOP(=S)(OCC)Oc1ccc2c(c1)OC(=O)C1(Cl)C2(C)C2(Cl)C(=O)Oc3cc(OP(=S)(OCC)OCC)ccc3C12C (stereo not drawn) | 37.2 µM |
| CCCCC1CC(c2ccc(Cl)cc2)=NO1 (stereo not drawn) | > 100 µM |

tested on: KM20L2 colon; assay: growth of human tumour cells (NCI), 48 h

| Compound | TGI |
| --- | --- |
| N#Cc1c2c(c(Cl)n3c1nc1ccccc13)CCCC2 | 7.48 µM |
| O=Cc1c(O)ccc2ccc(O)c(-c3c(O)ccc4ccc(O)cc34)c12 | > 100 µM |
| COc1ccc(/C=C/C(=O)C(C)(C)C)cc1OC | > 100 µM |
| CCOP(=S)(OCC)Oc1ccc2c(c1)OC(=O)C1(Cl)C2(C)C2(Cl)C(=O)Oc3cc(OP(=S)(OCC)OCC)ccc3C12C (stereo not drawn) | 33.4 µM |

tested on: SNB-75 CNS; assay: growth of human tumour cells (NCI), 48 h

| Compound | TGI |
| --- | --- |
| N#Cc1c2c(c(Cl)n3c1nc1ccccc13)CCCC2 | 30.9 µM |
| O=Cc1c(O)ccc2ccc(O)c(-c3c(O)ccc4ccc(O)cc34)c12 | > 100 µM |
| COc1ccc(/C=C/C(=O)C(C)(C)C)cc1OC | > 100 µM |
| CCOP(=S)(OCC)Oc1ccc2c(c1)OC(=O)C1(Cl)C2(C)C2(Cl)C(=O)Oc3cc(OP(=S)(OCC)OCC)ccc3C12C (stereo not drawn) | 34.3 µM |
| CCCCC1CC(c2ccc(Cl)cc2)=NO1 (stereo not drawn) | > 100 µM |

tested on: EKVX NSCLC; assay: growth of human tumour cells (NCI), 48 h

| Compound | TGI |
| --- | --- |
| N#Cc1c2c(c(Cl)n3c1nc1ccccc13)CCCC2 | 32.1 µM |
| COc1ccc(/C=C/C(=O)C(C)(C)C)cc1OC | > 100 µM |
| CCOP(=S)(OCC)Oc1ccc2c(c1)OC(=O)C1(Cl)C2(C)C2(Cl)C(=O)Oc3cc(OP(=S)(OCC)OCC)ccc3C12C (stereo not drawn) | 55.5 µM |
| CCCCC1CC(c2ccc(Cl)cc2)=NO1 (stereo not drawn) | > 100 µM |

tested on: DMS 114 small cell lung; assay: growth of human tumour cells (NCI), 48 h

| Compound | TGI |
| --- | --- |
| N#Cc1c2c(c(Cl)n3c1nc1ccccc13)CCCC2 | 5.12 µM |
| O=Cc1c(O)ccc2ccc(O)c(-c3c(O)ccc4ccc(O)cc34)c12 | > 100 µM |
| COc1ccc(/C=C/C(=O)C(C)(C)C)cc1OC | > 100 µM |
